# Data as given in patent publication US12552824B2, “C-mannoside compounds useful for the treatment of urinary tract infections” (GLAXOSMITHKLINE INTELLECTUAL PROPERTY DEVELOPMENT LIMITED, priority 2018, dated 2026).
# Target: T1, FimH (Escherichia coli, UniProt Q1R2J4);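 note: concentration in nM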
# T1 construct: endogenous in cells; host or cells: E. coli UTI89 whole bacteria, agglutinating guinea pig red blood cells
# Assay: not given
# Assay type: cell-based
# Settings: concentration reducing bacterial agglutination of guinea pig red blood cells by greater than 90%; UTI89 bacteria
# Method: Hemagglutination Inhibition Assay (HAI)
# The hemagglutination inhibition (HAI) assay was performed with UTI89 bacteria and guinea pig red blood cells, as previously described (S. J. Hultgren, W. R. Schwan, A. J. Schaeffer, J. L. Duncan Infect. Immun. 1986, 54, 613-620 and Jarvis, C.; Han, Z.; Kalas, V.; Klein, R.; Pinkner, J. S.; Ford, B.; Binkley, J.; Cusumano, C. K.; Cusumano, Z.; Mydock-McGrane, L.; Hultgren, S. J.; Janetka, J. W., ChemMedChem 2016, 11, 367-373).
row,Structure (SMILES),HAI titer EC > 90
1,"Cc1cc(-c2cc(F)c(C)c(F)c2)ccc1[C@@H](O)[C@H]1O[C@H](CO)[C@@H](O)[C@H](O)[C@@H]1O [Example 1, (2R,3S,4S,5S,6R)-2-((R)-(3′,5′-Difluoro-3,4′-dimethyl-[1,1′-biphenyl]-4-yl)(hydroxy)methyl)-6-(hydroxymethyl)tetrahydro-2H-pyran-3,4,5-triol]",“++++” (<50 “++++”)
2,COc1cc(-c2ccc([C@@H](O)[C@H]3O[C@H](CO)[C@@H](O)[C@H](O)[C@@H]3O)c(C)c2)cc(F)c1C [Example 63],“++++” (<50 “++++”)
3,COc1cc(C)cc(-c2ccc([C@@H](O)[C@H]3O[C@H](CO)[C@@H](O)[C@H](O)[C@@H]3O)c(C)c2)c1 [Example 65],“+++” (50-200 “+++”)
4,Cc1cc(-c2ccc(C(F)(F)F)c(C)c2)ccc1[C@@H](O)[C@H]1O[C@H](CO)[C@@H](O)[C@H](O)[C@@H]1O [Example 66],“++++” (<50 “++++”)
5,Cc1cc(-c2ccc(C(F)(F)F)c(C(F)(F)F)c2)ccc1[C@@H](O)[C@H]1O[C@H](CO)[C@@H](O)[C@H](O)[C@@H]1O [Example 67],“++++” (<50 “++++”)
6,Cc1cc(-c2ccc([C@@H](O)[C@H]3O[C@H](CO)[C@@H](O)[C@H](O)[C@@H]3O)c(C)c2)cc(C(F)(F)F)c1 [Example 68],“++++” (<50 “++++”)
7,COc1ccc(-c2ccc([C@@H](O)[C@H]3O[C@H](CO)[C@@H](O)[C@H](O)[C@@H]3O)c(C)c2)cc1C(F)(F)F [Example 69],“++++” (<50 “++++”)
8,Cc1cc(-c2cc(F)cc(F)c2F)ccc1[C@@H](O)[C@H]1O[C@H](CO)[C@@H](O)[C@H](O)[C@@H]1O [Example 70],“++++” (<50 “++++”)
9,COc1c(F)cc(-c2ccc([C@@H](O)[C@H]3O[C@H](CO)[C@@H](O)[C@H](O)[C@@H]3O)c(C)c2)cc1Cl [Example 71],“++++” (<50 “++++”)
10,Cc1cc(-c2cccc(C(F)(F)F)c2)ccc1[C@@H](O)[C@H]1O[C@H](CO)[C@@H](O)[C@H](O)[C@@H]1O [Example 75],“+++” (50-200 “+++”)
11,COc1cc(-c2ccc([C@@H](O)[C@H]3O[C@H](CO)[C@@H](O)[C@H](O)[C@@H]3O)c(C)c2)ccc1C(F)(F)F [Example 76],“++++” (<50 “++++”)
12,Cc1cc(-c2cccc(F)c2)ccc1[C@@H](O)[C@H]1O[C@H](CO)[C@@H](O)[C@H](O)[C@@H]1O [Example 77],“+++” (50-200 “+++”)
13,CCOc1ccc(-c2ccc([C@@H](O)[C@H]3O[C@H](CO)[C@@H](O)[C@H](O)[C@@H]3O)c(C)c2)cc1F [Example 81],“++++” (<50 “++++”)
14,COc1cc(F)c(-c2ccc([C@@H](O)[C@H]3O[C@H](CO)[C@@H](O)[C@H](O)[C@@H]3O)c(C)c2)cc1F [Example 82],“++++” (<50 “++++”)
15,Cc1cc(-c2ccc(CN(C)C)c(F)c2)ccc1[C@@H](O)[C@H]1O[C@H](CO)[C@@H](O)[C@H](O)[C@@H]1O [Example 83],“++++” (<50 “++++”)
16,Cc1cc(-c2cc(C)c(C)c(F)c2)ccc1[C@@H](O)[C@H]1O[C@H](CO)[C@@H](O)[C@H](O)[C@@H]1O [Example 84],“++++” (<50 “++++”)
17,Cc1cc(-c2cc(F)cc(C(F)F)c2)ccc1[C@@H](O)[C@H]1O[C@H](CO)[C@@H](O)[C@H](O)[C@@H]1O [Example 85],“++++” (<50 “++++”)
18,Cc1cc(-c2cc(C(F)F)cc(C(F)F)c2)ccc1[C@@H](O)[C@H]1O[C@H](CO)[C@@H](O)[C@H](O)[C@@H]1O [Example 86],“++++” (<50 “++++”)

row,Structure (SMILES),HAI titer EC > 90
1,COc1cc(-c2ccc([C@@H](O)[C@H]3O[C@H](CO)[C@@H](O)[C@H](O)[C@@H]3O)c(C)c2)cc(F)c1C(F)(F)F [Example 87],“++++” (<50 “++++”)
2,Cc1cc(-c2cc(C)c(F)c(F)c2)ccc1[C@@H](O)[C@H]1O[C@H](CO)[C@@H](O)[C@H](O)[C@@H]1O [Example 88],“++++” (<50 “++++”)
3,Cc1cc(-c2cc(F)c(C(C)C)c(F)c2)ccc1[C@@H](O)[C@H]1O[C@H](CO)[C@@H](O)[C@H](O)[C@@H]1O [Example 89],“++++” (<50 “++++”)
4,Cc1cc(-c2cc(OC(C)C)cc(C(F)(F)F)c2)ccc1[C@@H](O)[C@H]1O[C@H](CO)[C@@H](O)[C@H](O)[C@@H]1O [Example 90],“+++” (50-200 “+++”)
5,CCCc1c(F)cc(-c2ccc([C@@H](O)[C@H]3O[C@H](CO)[C@@H](O)[C@H](O)[C@@H]3O)c(C)c2)cc1F [Example 92],“++++” (<50 “++++”)
6,Cc1cc(-c2cc(F)c(OC(F)F)c(F)c2)ccc1[C@@H](O)[C@H]1O[C@H](CO)[C@@H](O)[C@H](O)[C@@H]1O [Example 96],“++++” (<50 “++++”)
7,OC[C@H]1O[C@H]([C@H](O)c2ccc(-c3cc(F)c(F)c(F)c3)cc2C(F)(F)F)[C@@H](O)[C@@H](O)[C@@H]1O [Example 97],“++++” (<50 “++++”)
8,Cc1cc(-c2ccc(F)cc2)ccc1[C@@H](O)[C@H]1O[C@H](CO)[C@@H](O)[C@H](O)[C@@H]1O [Example 98],“+++” (50-200 “+++”)
9,Cc1cc(-c2ccc(Cl)cc2)ccc1[C@@H](O)[C@H]1O[C@H](CO)[C@@H](O)[C@H](O)[C@@H]1O [Example 99],“+++” (50-200 “+++”)
10,Cc1cc(-c2ccc(C3CC3)cc2)ccc1[C@@H](O)[C@H]1O[C@H](CO)[C@@H](O)[C@H](O)[C@@H]1O [Example 100],“+++” (50-200 “+++”)
11,COCc1c(F)cc(-c2ccc([C@@H](O)[C@H]3O[C@H](CO)[C@@H](O)[C@H](O)[C@@H]3O)c(C)c2)cc1F [Example 102],“++++” (<50 “++++”)
12,C#Cc1c(F)cc(-c2ccc([C@@H](O)[C@H]3O[C@H](CO)[C@@H](O)[C@H](O)[C@@H]3O)c(C)c2)cc1F [Example 103],“++++” (<50 “++++”)
13,Cc1cc(-c2cc(F)c(N(C)C)c(F)c2)ccc1[C@@H](O)[C@H]1O[C@H](CO)[C@@H](O)[C@H](O)[C@@H]1O [Example 104],“++++” (<50 “++++”)
14,Cc1cc(-c2ccc(C(F)(F)F)cc2)ccc1[C@@H](O)[C@H]1O[C@H](CO)[C@@H](O)[C@H](O)[C@@H]1O [Example 105],“+++” (50-200 “+++”)
15,COc1cc(-c2ccc([C@@H](O)[C@H]3O[C@H](CO)[C@@H](O)[C@H](O)[C@@H]3O)c(C)c2)cc(C(F)(F)F)c1F [Example 106],“++++” (<50 “++++”)
16,Cc1cc(-c2cc(F)cc(N(C)C)c2)ccc1[C@@H](O)[C@H]1O[C@H](CO)[C@@H](O)[C@H](O)[C@@H]1O [Example 109],“++++” (<50 “++++”)
17,Cc1cc(-c2cc(F)c(F)c(C(F)(F)F)c2)ccc1[C@@H](O)[C@H]1O[C@H](CO)[C@@H](O)[C@H](O)[C@@H]1O [Example 110],“++++” (<50 “++++”)

# Tested on: not listed separately
# Assay: Rat pharmacokinetics: IV infusion 1 mg/kg, then PO 5 mg/kg; blood and urine by LC-MS/MS
# Assay type: in vivo, Male Wistar Han rats
# Settings: male, Wistar Han, whole blood, oral bioavailability, ratio of dose-normalised AUC PO (5 mg/kg) and IV infusion (1 mg/kg)
# Source text: General Assays for Obtaining AUC Oral h*μm, % F, and Ue % PO Values
# Male Wistar Han rats were purchased from Vital River Laboratory Animal Technology Co. Ltd (Beijing, China). The animals were approx. 6-8 weeks old with body weights of 200-300 g on the dosing date. The animals were housed in a 12-hour light/12-hour dark cycle environment and had free access to food and water. All animals were fed prior to dosing. Studies were approved by the Pharmaron Institutional Animal Care and Use Committee (IACUC).
# Test article was administered as an intravenous infusion for 1 hour (1 mg/kg) at 5 mL/kg/h. After 48 h, animals received a single oral dose (5 mg/kg, free form) at a dose volume of 10 mL/kg, respectively. Blood samples were collected at various time points after IV infusion and PO administrations. Urine samples were collected at various time points after IV infusion and PO administrations.
# Test article was dissolved in DMSO with vortexing and sonification to obtain a stock solution. An aliquot of the stock solution was mixed with 10% HP-β-CD in saline with vortexing to obtain a solution with concentration at 0.2 mg/mL of test article.
# Test article was added into 1% Methyl Cellulose with vortexing and sonication to obtain a homogeneous suspension with concentration at 0.5 mg/mL of test article.
# For IV infusion (1 mg/kg) administration, blood samples were collected from each animal at 0, 0.25, 0.5, 0.75, 1, 1.08, 1.25, 1.5, 1.75, 2, 3, 5, 8, 12, 24 hour post-dose.
# For PO (5 mg/kg) administration, blood samples were collected from each animal at 0, 0.25, 0.5, 1, 1.5, 2, 3, 4, 6, 8, 12, 24 hour post-dose.
# Blood samples (50 μL) were collected from each animal via jugular vein. These blood samples were placed into tubes containing K2EDTA. Whole blood was mixed with same volume of water and inverted several times. The blood samples were stored at −75±15° C. until analysis.
# For IV infusion (1 mg/kg) administration, urine samples were collected from each animal at 0-4, 4-8, 8-12, 12-24 hour post-dose.
# For PO (5 mg/kg) administration, urine samples were collected from each animal at 0-4, 4-8, 8-12, 12-24 hour post-dose.
# Urine samples were collected continuously into containers maintained over dry ice at the intervals outlined below and stored at −80° C. prior to analysis.
# 55 μL of standards, 55 μL of QC samples or 55 μL of unknown samples (50 μL of blood or urine with 5 μL 50% acetonitrile) were mixed to 200 μL of acetonitrile containing IS (dexamethasone) to precipitate proteins. Then the samples were vortexed for 30 sec. After centrifugation at 4° C., 4700 rpm for 30 min, and 5 μL of the supernatant was injected into the LC-MS/MS system for quantitative analysis.
# Test article blood and urine concentrations for each animal following IV infusion at 1 mg/kg and PO at 5 mg/kg were used to calculate pharmacokinetic parameters by employing a non-compartmental analysis (Phoenix™ WinNonlin® 7.0). The linear trapezoidal algorithm was used for AUC calculation.
row,Structure (SMILES),bioavailability [%]
1,"Cc1cc(-c2cc(F)c(C)c(F)c2)ccc1[C@@H](O)[C@H]1O[C@H](CO)[C@@H](O)[C@H](O)[C@@H]1O [Example 1, (2R,3S,4S,5S,6R)-2-((R)-(3′,5′-Difluoro-3,4′-dimethyl-[1,1′-biphenyl]-4-yl)(hydroxy)methyl)-6-(hydroxymethyl)tetrahydro-2H-pyran-3,4,5-triol]",10 to 30

# Same assay, conditions: percentage of oral dose (5 mg/kg) eliminated unchanged in urine
row,Structure (SMILES),Ue % po
1,"Cc1cc(-c2cc(F)c(C)c(F)c2)ccc1[C@@H](O)[C@H]1O[C@H](CO)[C@@H](O)[C@H](O)[C@@H]1O [Example 1, (2R,3S,4S,5S,6R)-2-((R)-(3′,5′-Difluoro-3,4′-dimethyl-[1,1′-biphenyl]-4-yl)(hydroxy)methyl)-6-(hydroxymethyl)tetrahydro-2H-pyran-3,4,5-triol]",“++” (0.5 <= x <= 5%)

# Same assay, conditions: whole blood, area under blood concentration-time profile, PO 5 mg/kg, male Wistar Han rats, n = 3
row,Structure (SMILES),AUC [nM·h]
1,"Cc1cc(-c2cc(F)c(C)c(F)c2)ccc1[C@@H](O)[C@H]1O[C@H](CO)[C@@H](O)[C@H](O)[C@@H]1O [Example 1, (2R,3S,4S,5S,6R)-2-((R)-(3′,5′-Difluoro-3,4′-dimethyl-[1,1′-biphenyl]-4-yl)(hydroxy)methyl)-6-(hydroxymethyl)tetrahydro-2H-pyran-3,4,5-triol]",< 500
